Experimental data taken from patent publication US9499538B2, “Estrogen receptor modulators and uses thereof” (Seragon Pharmaceuticals, Inc., priority 2012, dated 2016).
pIC50: −log10 of the molar value.

Tests used:
MCF-7 cells = assay: Breast Cancer Cell Viability Assays (MCF-7, CellTiter-Glo); assay type: cell-based; settings: 5 days' compound exposure; for pIC50: Homo sapiens, MCF7, 120 h
Procedure, shortened: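 MCF-7 cells (320/well, RPMI with 10% FBS) exposed for 5 days to an eleven-point semilog series, 0.3–0.000003 μM final. Viability read by CellTiter-Glo luminescence, expressed as background-corrected percent of untreated cells.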

ER-α in MCF-7 cells = target: T1, ER-α in MCF-7 cells (Homo sapiens, UniProt P03372); assay: Breast Cancer Cell ER-α In Cell Western Assay (SP1); assay type: cell-based; settings: 4 or 24 hr post compound addition; for Emax: MCF7, SP1 antibody, read-out: ER-α In Cell Western Assay (SP1) Max Response; for DC50: SP1 antibody, read-out: ER-α In Cell Western Assay (SP1) IC50
T1 construct: endogenous in cells; host or cells: MCF-7
T1 sequence (P03372 1-595): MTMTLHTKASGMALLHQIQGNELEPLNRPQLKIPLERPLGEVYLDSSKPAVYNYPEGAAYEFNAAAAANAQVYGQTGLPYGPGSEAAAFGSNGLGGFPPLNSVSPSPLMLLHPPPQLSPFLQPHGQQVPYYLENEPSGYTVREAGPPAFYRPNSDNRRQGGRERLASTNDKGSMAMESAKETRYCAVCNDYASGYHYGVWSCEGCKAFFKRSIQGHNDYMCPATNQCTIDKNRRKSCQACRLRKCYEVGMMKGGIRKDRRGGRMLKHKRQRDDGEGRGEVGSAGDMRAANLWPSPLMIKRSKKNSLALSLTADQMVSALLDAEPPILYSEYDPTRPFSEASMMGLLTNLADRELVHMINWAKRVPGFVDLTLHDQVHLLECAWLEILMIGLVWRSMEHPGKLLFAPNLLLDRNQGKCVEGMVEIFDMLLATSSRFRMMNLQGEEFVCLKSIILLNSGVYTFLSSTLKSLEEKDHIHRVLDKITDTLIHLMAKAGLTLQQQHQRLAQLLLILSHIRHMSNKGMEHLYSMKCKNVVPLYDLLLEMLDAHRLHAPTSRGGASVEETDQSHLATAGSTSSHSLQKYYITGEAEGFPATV
Procedure, shortened: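 MCF-7 cells in charcoal-stripped FBS medium, treated with 11-point semilog dilutions (0.3–0.000003 μM final) for 4 or 24 h. Fixed cells immunostained with SP1 antibody (800 nm) and DRAQ5 DNA (700 nm); ER/DNA ratio expressed as % of untreated cells.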

SMILES | MCF7 Viability Assay Max Response (MCF-7 cells) | pIC50 (MCF-7 cells) | Emax (ER-α in MCF-7 cells) [%] | DC50 (ER-α in MCF-7 cells) [µM]
Cc1sccc1/C(=C(\c1ccc(/C=C/C(=O)O)cc1)c1ccc2[nH]nc(F)c2c1)C1CCC1 [Example 149, (E)-3-(4-((E)-2-Cyclobutyl-1-(3-fluoro-1H-indazol-5-yl)-2-(2-methylthiophen-3-yl)vinyl)phenyl)acrylic acid] | ++ (++ = a single % value ≧ 40%) | ≥ 7.00 | ≥ 40 | ≤ 0.1
COc1ccc(/C(=C(\c2ccc(/C=C/C(=O)O)c(F)c2)c2ccc3[nH]nc(F)c3c2)C2CCC2)c(Cl)c1 [Example 256, (E)-3-(4-((Z)-2-(2-Chloro-4-methoxyphenyl)-2-cyclobutyl-1-(3-fluoro-1H-indazol-5-yl)vinyl)-2-fluorophenyl)acrylic acid] | ++ (++ = a single % value ≧ 40%) | ≥ 7.00 | ≥ 40 | ≤ 0.1
CS(=O)(=O)c1ccccc1/C(=C(\c1ccc(/C=C/C(=O)O)cc1)c1ccc2[nH]nc(F)c2c1)C1CC1 [Example 193, (E)-3-(4-((E)-2-Cyclopropyl-1-(3-fluoro-1H-indazol-5-yl)-2-(2-(methylsulfonyl)phenyl)vinyl)phenyl)acrylic acid] | ++ (++ = a single % value ≧ 40%) | ≥ 7.00 | ≥ 40 | ≤ 0.1
Cc1cc(F)ccc1/C(=C(\c1ccc(/C=C/C(=O)O)cc1)c1ccc2scnc2c1)C1CCC1 [Example 239, (E)-3-(4-((E)-1-(Benzo[d]thiazol-5-yl)-2-cyclobutyl-2-(4-fluoro-2-methylphenyl)vinyl)phenyl)acrylic acid] | ++ (++ = a single % value ≧ 40%) | ≥ 7.00 | ≥ 40 | ≤ 0.1
COc1ccc(/C(=C(\c2ccc(/C=C/C(=O)O)cc2)c2ccc3[nH]nc(F)c3c2)C2CC2)c(F)c1 [Example 113, (E)-3-(4-((E)-2-Cyclopropyl-1-(3-fluoro-1H-indazol-5-yl)-2-(2-fluoro-4-methoxyphenyl)vinyl)phenyl)acrylic acid] | ++ (++ = a single % value ≧ 40%) | ≥ 7.00 | ≥ 40 | ≤ 0.1
Cc1cc(C#N)ccc1/C(=C(\c1ccc(/C=C/C(=O)O)cc1)c1ccc2[nH]nc(F)c2c1)C1CCC1 [Example 50, (E)-3-(4-((E)-2-(4-Cyano-2-methylphenyl)-2-cyclobutyl-1-(3-fluoro-1H-indazol-5-yl)vinyl)phenyl)acrylic acid] | ++ (++ = a single % value ≧ 40%) | ≥ 7.00 | ≥ 40 | ≤ 0.1
CC/C(=C(/c1ccc(/C=C/C(=O)O)cc1)c1ccc2[nH]nc(F)c2c1)c1ccc(Oc2cncc(S(C)(=O)=O)n2)cc1 [Example 58, (E)-3-(4-((E)-1-(3-Fluoro-1H-indazol-5-yl)-2-(4-((6-(methylsulfonyl)pyrazin-2-yl)oxy)phenyl)but-1-en-1-yl)phenyl)acrylic acid] | ++ (++ = a single % value ≧ 40%) | < 7.00 | ≥ 40 | > 0.1
CC/C(=C(/c1ccc(/C=C/C(=O)O)cc1)c1cccc2[nH]nc(F)c12)c1ccc(F)cc1Cl [Example 163, (E)-3-(4-((E)-2-(2-Chloro-4-fluorophenyl)-1-(3-fluoro-1H-indazol-4-yl)but-1-en-1-yl)phenyl)acrylic acid] | ++ (++ = a single % value ≧ 40%) | ≥ 7.00 | ≥ 40 | ≤ 0.1
Fc1n[nH]c2ccc(/C(=C(/c3ccccc3)C3CCC3)c3ccc(/C=C/c4ccn[nH]4)cc3)cc12 [Example 207, 5-((E)-1-(4-((E)-2-(1H-Pyrazol-5-yl)vinyl)phenyl)-2-cyclobutyl-2-phenylvinyl)-3-fluoro-1H-indazole] | + (+ = a single % value < 40%) | < 7.00 | ≥ 40 | ≤ 0.1
COc1ccc(/C(=C(\c2ccc(/C=C/C(=O)O)cc2)c2ccc3scnc3c2)C2CCC2)cn1 [Example 93, (E)-3-(4-((E)-1-(Benzo[d]thiazol-5-yl)-2-cyclobutyl-2-(6-methoxypyridin-3-yl)vinyl)phenyl)acrylic acid] | ++ (++ = a single % value ≧ 40%) | ≥ 7.00 | ≥ 40 | ≤ 0.1
COc1ncc(/C(=C(\c2ccc(/C=C/C(=O)O)cc2)c2ccc3[nH]nc(F)c3c2)C2CCC2)cc1Cl [Example 136, (E)-3-(4-((E)-2-(5-Chloro-6-methoxypyridin-3-yl)-2-cyclobutyl-1-(3-fluoro-1H-indazol-5-yl)vinyl)phenyl)acrylic acid] | ++ (++ = a single % value ≧ 40%) | ≥ 7.00 | ≥ 40 | ≤ 0.1
COc1ccc(/C(=C(\c2ccc(/C=C/C(=O)O)cc2)c2ccc3[nH]nc(F)c3c2)C2CCC2)c(F)c1 [Example 68, (E)-3-(4-((E)-2-Cyclobutyl-1-(3-fluoro-1H-indazol-5-yl)-2-(2-fluoro-4-methoxyphenyl)vinyl)phenyl)acrylic acid] | ++ (++ = a single % value ≧ 40%) | ≥ 7.00 | ≥ 40 | ≤ 0.1
O=C(O)/C=C/c1ccc(/C(=C(\c2cc(F)ccc2Cl)C2CCC2)c2ccc3scnc3c2)cc1 [Example 236, (E)-3-(4-((E)-1-(Benzo[d]thiazol-5-yl)-2-(2-chloro-5-fluorophenyl)-2-cyclobutylvinyl)phenyl)acrylic acid] | ++ (++ = a single % value ≧ 40%) | ≥ 7.00 | ≥ 40 | ≤ 0.1
CC(C)/C(=C(/c1ccc(/C=C/C(=O)O)cc1)c1ccc2[nH]nc(F)c2c1)c1ccccc1 [Example 15, (E)-3-(4-((E)-1-(3-Fluoro-1H-indazol-5-yl)-3-methyl-2-phenylbut-1-en-1-yl)phenyl)acrylic acid] | ++ (++ = a single % value ≧ 40%) | ≥ 7.00 | ≥ 40 | ≤ 0.1
N#Cc1cc(C(F)(F)F)ccc1/C(=C(\c1ccc(/C=C/C(=O)O)cc1)c1ccc2[nH]nc(F)c2c1)C1CCC1 [Example 243, (E)-3-(4-((E)-2-(2-Cyano-4-(trifluoromethyl)phenyl)-2-cyclobutyl-1-(3-fluoro-1H-indazol-5-yl)vinyl)phenyl)acrylic acid] | ++ (++ = a single % value ≧ 40%) | ≥ 7.00 | ≥ 40 | ≤ 0.1
O=C(/C=C/c1ccc(/C(=C(\c2ccccc2)C2CCC2)c2ccc3[nH]nc(F)c3c2)cc1)NCC(O)CO (stereo not drawn) [Example 188, (E)-3-(4-((E)-2-Cyclobutyl-1-(3-fluoro-1H-indazol-5-yl)-2-phenylvinyl)phenyl)-N-(2,3-dihydroxypropyl)acrylamide] | ++ (++ = a single % value ≧ 40%) | ≥ 7.00 | ≥ 40 | ≤ 0.1
O=C(O)/C=C/c1ccc(/C(=C(\c2ncc(C(F)(F)F)cc2Cl)C2CCC2)c2ccc3scnc3c2)cc1 [Example 244, (E)-3-(4-((E)-1-(Benzo[d]thiazol-5-yl)-2-(3-chloro-5-(trifluoromethyl)pyridin-2-yl)-2-cyclobutylvinyl)phenyl)acrylic acid] | ++ (++ = a single % value ≧ 40%) | ≥ 7.00 | ≥ 40 | ≤ 0.1
O=C(O)/C=C/c1ccc(/C(=C(\c2ccccc2F)C2CC2)c2ccc3[nH]nc(F)c3c2)cc1 [Example 154, (E)-3-(4-((E)-2-Cyclopropyl-1-(3-fluoro-1H-indazol-5-yl)-2-(2-fluorophenyl)vinyl)phenyl)acrylic acid] | ++ (++ = a single % value ≧ 40%) | ≥ 7.00 | ≥ 40 | ≤ 0.1
Fc1n[nH]c2ccc(/C(=C(/c3ccccc3)C3CCC3)c3ccc(/C=C/c4ccccn4)cc3)cc12 [Example 215] | ++ (++ = a single % value ≧ 40%) | ≥ 7.00 | ≥ 40 | ≤ 0.1
N=C(N)/C=C/c1ccc(/C(=C(\c2ccccc2)C2CCC2)c2ccc3[nH]nc(F)c3c2)cc1 [Example 210] | ++ (++ = a single % value ≧ 40%) | ≥ 7.00 | ≥ 40 | ≤ 0.1
COc1cccc(/C(=C(\c2ccc(/C=C/C(=O)O)cc2)c2ccc3[nH]nc(F)c3c2)C2CCC2)n1 [Example 147, (E)-3-(4-((E)-2-Cyclobutyl-1-(3-fluoro-1H-indazol-5-yl)-2-(6-methoxypyridin-2-yl)vinyl)phenyl)acrylic acid] | ++ (++ = a single % value ≧ 40%) | ≥ 7.00 | ≥ 40 | ≤ 0.1
